Assay results from publication PMC7972453, “The allosteric modulation of complement C5 by knob domain peptides” (eLife, 2021).
Bridges are numbered along the chain shown (N, C = ends). Where no end group is shown, it is not given here.

Assays:
C5 activation by the AP = test: Complement activation assays, alternative pathway (overall); format: biochemical; conditions: C5a release, C5b neo-epitope formation and C9 deposition ELISAs; human serum
Description: (§1) For functional characterisation of the peptides, we performed complement assays for CP and AP activation in human serum, assessing C5b neo-epitope formation and C5a release (schematically presented in Figure 1A, B), in combination with orthogonal ELISAs, measuring C3b and C9 deposition.
(§2) For the C3 and C9 ELISAs, microtiter plates (MaxiSorp; Nunc) were incubated overnight at 4°C with 50 µL of a solution of in 75 mM sodium carbonate (pH 9.6) containing either 2.5 µg/mL aggregated human IgG (Sigma-Aldrich, Gillingham, UK) for CP or 20 µg/mL zymosan (Sigma-Aldrich, Gillingham, UK) for AP. As a negative control, wells were coated with 1% (w/v) bovine serum albumin (BSA)/PBS. […] Complement activation was assessed through detection of deposited complement activation factors using specific antibodies against C3b (rat anti-human C3d HM2198, Hycult, Uden, The Netherlands) and C9 (goat anti-human C9, A226, Complement Technologies Tyler, TX) at a 1:1000 dilution. Bound primary antibodies were detected with […]-conjugated goat anti-rat (ab97057, Abcam, Cambridge, UK) or rabbit anti-goat (P0449, Agilent Dako, Santa Clara, CA) secondary antibodies at a 1:1000 dilution. Bound HRP-conjugated antibodies were detected using TMB One solution (Eco-TEK – manufactured by Bio-TEK, Winooski, VT) with absorbance measured at 450 nm. […]

human C5b = target: T1, human C5b (Homo sapiens, UniProt P01031); test: SPR single-cycle kinetics, binding to C5b
T1 construct: Upon cleavage of C5a, the remaining domains of the α-chain undergo a substantial conformational change; C5a was removed using a spin column with 30 kDa cut-off; tissue TCS Biosciences (serum); host or cells: human serum; C5 cleaved in house with CVF, factor B and factor D
Description: Human C5 was affinity purified using an E141A, H164A OmCI column ([Macpherson et al., 2018]). Briefly, human serum (TCS Biosciences, Botolph Claydon, UK) was diluted 1:1 (v/v) with phosphate buffered saline (PBS), 20 mM ethylenediaminetetraacetic acid (EDTA), and applied to a 5 mL Hi-Trap NHS column (GE Healthcare, Amersham UK), which contained 20 mg of E141A H164A OmCI protein, at a rate of 1 mL/min. The column was washed with 5× column volumes (CV) of PBS, C5 was then eluted using 2 M MgCl2 and immediately dialysed into PBS. C5b was prepared from human C5 by incubating C5 with CVF, factor B and factor D, at a 1:10 molar ratio, as previously described ([Jore et al., 2016]). C5a was removed using a spin column with 30 kDa cut-off (Thermo Fisher Scientific, Horsham, UK).
On a Biacore 8K (GE Healthcare, Amersham, UK), human C5b was immobilised on a CM5 chip (GE Healthcare, Amersham, UK). Flow cells were activated using a standard immobilisation protocol: EDC/NHS was mixed at 1:1 ratio (flow rate, 10 µL/min; contact time, 30 s). C5b, at 1 µg/mL, or C5b-6 (Complement Technologies, Tyler, TX), at 2 µg/mL, in pH 4.5 sodium acetate buffer, were immobilised on flow cell two only (flow rate, 10 µL/min; contact time, 420 s). Finally, ethanolamine was applied to both flow cells (flow rate, 10 µL/min; contact time, 420 s). A final immobilisation level of 500–700 RUs was obtained for C5b and 1000–1150 RUs were obtained for C5b-6. Single-cycle kinetics were measured using a seven-point, threefold serial dilution (spanning a range of 1 µM to 1.4 nM) in HBS-EP buffer (GE Healthcare, Amersham, UK). A high flow rate of 40 µL/min was used, with a contact time of 300 s and a dissociation time of 2700 s. Binding to the reference surface was subtracted, and the data were fitted to a single-site binding model using Biacore evaluation software. All sensorgrams were inspected for evidence of mass transport limitation using the flow rate-independent component of the mass transfer constant (tc).
Table 4.1. SPR single-cycle kinetics of knob domains binding to human C5b.

C5 activation by the CP = test: Complement activation assays, classical pathway (overall); format: biochemical; conditions: C5a release, C5b neo-epitope formation and C9 deposition ELISAs; human serum
Description: as §1, §2

T1 sequence (P01031 752-1676 limits assumed): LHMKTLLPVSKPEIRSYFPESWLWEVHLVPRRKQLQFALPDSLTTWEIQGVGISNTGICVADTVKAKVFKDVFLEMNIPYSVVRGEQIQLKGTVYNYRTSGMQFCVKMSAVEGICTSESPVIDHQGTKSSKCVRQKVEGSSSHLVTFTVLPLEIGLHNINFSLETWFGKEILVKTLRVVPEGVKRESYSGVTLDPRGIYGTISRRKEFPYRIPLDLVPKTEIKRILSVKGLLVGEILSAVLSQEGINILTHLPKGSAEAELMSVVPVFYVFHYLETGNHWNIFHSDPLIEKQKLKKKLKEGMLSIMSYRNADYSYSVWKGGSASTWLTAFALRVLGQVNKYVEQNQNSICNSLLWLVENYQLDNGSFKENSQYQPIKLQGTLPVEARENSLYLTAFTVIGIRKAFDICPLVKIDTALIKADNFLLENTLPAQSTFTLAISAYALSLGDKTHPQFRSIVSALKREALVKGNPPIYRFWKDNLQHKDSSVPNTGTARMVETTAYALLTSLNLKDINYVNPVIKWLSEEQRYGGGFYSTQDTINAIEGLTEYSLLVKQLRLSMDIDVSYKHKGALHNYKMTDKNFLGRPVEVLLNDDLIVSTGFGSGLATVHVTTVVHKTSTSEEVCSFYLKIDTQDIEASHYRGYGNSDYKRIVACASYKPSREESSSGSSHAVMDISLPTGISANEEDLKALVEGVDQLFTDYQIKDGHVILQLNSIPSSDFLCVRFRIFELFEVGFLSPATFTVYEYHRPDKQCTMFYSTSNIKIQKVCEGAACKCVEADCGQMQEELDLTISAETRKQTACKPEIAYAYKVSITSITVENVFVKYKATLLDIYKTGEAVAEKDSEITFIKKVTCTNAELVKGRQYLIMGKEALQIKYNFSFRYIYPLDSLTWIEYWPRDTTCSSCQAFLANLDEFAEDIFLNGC
T1 sequence (P01031 19-673 limits assumed): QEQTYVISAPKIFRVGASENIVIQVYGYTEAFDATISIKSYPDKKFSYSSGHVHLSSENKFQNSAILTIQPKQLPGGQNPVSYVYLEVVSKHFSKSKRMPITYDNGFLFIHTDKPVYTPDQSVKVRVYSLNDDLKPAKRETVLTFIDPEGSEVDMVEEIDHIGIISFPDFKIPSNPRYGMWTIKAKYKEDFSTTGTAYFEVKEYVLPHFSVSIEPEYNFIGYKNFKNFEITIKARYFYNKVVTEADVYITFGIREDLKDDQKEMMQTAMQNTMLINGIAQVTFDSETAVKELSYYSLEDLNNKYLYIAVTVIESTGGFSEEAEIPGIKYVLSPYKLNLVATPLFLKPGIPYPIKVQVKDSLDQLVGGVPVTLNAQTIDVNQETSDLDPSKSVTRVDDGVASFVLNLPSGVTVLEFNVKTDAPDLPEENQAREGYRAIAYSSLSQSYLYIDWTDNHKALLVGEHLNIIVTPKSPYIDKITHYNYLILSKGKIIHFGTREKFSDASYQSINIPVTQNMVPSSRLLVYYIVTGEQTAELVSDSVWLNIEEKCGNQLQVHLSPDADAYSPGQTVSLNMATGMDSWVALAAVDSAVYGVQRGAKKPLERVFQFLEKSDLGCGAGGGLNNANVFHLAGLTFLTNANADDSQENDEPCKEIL

In the case of “SVCPDGFDWGYGCAAGSSRFCTRHDWCCYDERADSHTYGFCTGNRVENLYFQ (disulfide 3-28, 13-21, 27-41) [K8]”, the “inhibition of C5 activation, AP assays (in words)” value (C5 activation by the AP) is reported as “partially inhibiting both the AP and CP”, the “binding to C5b (in words)” value (human C5b; SPR single-cycle kinetics) is reported as “did not bind C5b” and the Stoichiometric ratio (human C5b; replicate n=1) is reported as 0.1. The “comment (binding)” value (human C5b; replicate n=1) was “Non-binding”, the Stoichiometric ratio (human C5b; replicate n=2) was 0.1 and the “comment (binding)” value (human C5b; replicate n=2) was “Non-binding”. The Stoichiometric ratio (human C5b; replicate n=3) was 0.2, the “comment (binding)” value (human C5b; replicate n=3) was “Non-binding” and the Mean stoichiometric ratio (human C5b; summary of n=3) was 0.1. For the same sequence, the “comment (binding)” value (human C5b; summary of n=3) was “Non-binding” and the “inhibition of C5 activation, CP assays (in words)” value (C5 activation by the CP) was “partially inhibiting both the AP and CP”.
